Assay results: ChEMBL document CHEMBL2311440, “Inhibitors of HIV-1 attachment. Part 8: the effect of C7-heteroaryl substitution on the potency, and in vitro and in vivo profiles of indole-based inhibitors” (Bioorg Med Chem Lett, 2013)

Columns and labels:
[1] = Antiviral activity against T-tropic HIV1 BRU virus by cell culture based assay; format: functional, Human immunodeficiency virus type 1 (BRU ISOLATE); conditions: Human immunodeficiency virus 1
[2] = system: Human immunodeficiency virus 1; experiment: Antiviral activity against HIV1 JRFL pseudotyped virus infected in HeLa CD4+ CCR5+ cells by single-cycle viral infectivity assay; format: functional, organism-based; conditions: Human immunodeficiency virus 1, JRFL
[3] = system: Human immunodeficiency virus 1; experiment: Antiviral activity against T-tropic HIV1 NL4-3 virus by cell culture based assay; format: functional, organism-based; conditions: Human immunodeficiency virus 1, NL4-3
[4] = Cytotoxicity against human HeLa CD4+ CCR5+ cells after 6 days by XTT assay; format: cell-based
[5] = system: Human immunodeficiency virus 1; experiment: Antiviral activity against M-tropic HIV1 Bal virus by cell culture based assay; format: functional, organism-based; conditions: Human immunodeficiency virus 1, Bal
[6] = Half life in human liver microsomes; format: ADME, Microsome
[7] = Permeability across human Caco2 cells at pH 6.5; format: ADME, cell-based; conditions: Caco-2, pH 6.5, read-out: permeability
[8] = Clearance in rat at 1 mg/kg, iv; format: ADME, organism-based; set-up: dose 1 mg/kg, route intravenous; conditions: in vivo
[9] = Cmax in rat at 5 mg/kg, po; format: ADME, organism-based; set-up: dose 5 mg/kg, route oral; conditions: in vivo
[10] = Half life in rat at 1 mg/kg, iv; format: ADME, organism-based; set-up: dose 1 mg/kg, route intravenous; conditions: in vivo
[11] = Oral bioavailability in rat at 5 mg/kg; format: ADME, organism-based; conditions: in vivo
[12] = Safety index, ratio fo CC50 for human HeLa CD4+ CCR5+ cells to EC50 for HIV1 JRFL; format: toxicity; conditions: read-out: Ratio CC50/EC50

Row | SMILES | EC50 [2] [nM] | CC50 at 144 h [4] [nM] | half-life [6] [min] | Papp [7] [×10⁻⁶ cm/s] | further results
1 | O=C(C(=O)N1CCN(C(=O)c2ccccc2)CC1)c1c[nH]c2cccc(F)c12 | 1.24 | > 300000 | > 100 |  | EC50 [1]: 90 nM; EC50 [3]: 1500 nM; EC50 [5]: 700 nM
2 | C[C@@H]1CN(C(=O)c2ccccc2)CCN1C(=O)C(=O)c1c[nH]c2c(-c3nn[nH]n3)ccc(F)c12 | 0.07 | > 300000 | > 100 | < 1.5 | 
3 | C[C@@H]1CN(C(=O)c2ccccc2)CCN1C(=O)C(=O)c1c[nH]c2c(-c3ncon3)ccc(F)c12 | 0.04 | 125000 |  |  | 
4 | COc1ccc(-c2ncon2)c2[nH]cc(C(=O)C(=O)N3CCN(C(=O)c4ccccc4)CC3)c12 | 0.16 | 22000 | 16 | 14.8 | 
5 | Cc1nnc(-c2ccc(F)c3c(C(=O)C(=O)N4CCN(C(=O)c5ccccc5)CC4)c[nH]c23)[nH]1 | 0.16 | 159000 | 25 | 8.9 | 
6 | NC(=O)c1nc(-c2ccc(F)c3c(C(=O)C(=O)N4CCN(C(=O)c5ccccc5)CC4)c[nH]c23)no1 | 0.1 | 154000 |  |  | 
7 | CC(=O)Nc1nc(-c2ccc(F)c3c(C(=O)C(=O)N4CCN(C(=O)c5ccccc5)CC4)c[nH]c23)no1 | 0.1 | 229000 |  |  | 
8 | CN(C)c1nc(-c2ccc(F)c3c(C(=O)C(=O)N4CCN(C(=O)c5ccccc5)CC4)c[nH]c23)no1 | 0.3 | 23000 |  |  | 
9 | CNc1nc(-c2ccc(F)c3c(C(=O)C(=O)N4CCN(C(=O)c5ccccc5)CC4)c[nH]c23)no1 | 0.04 | 26000 |  |  | 
10 | Nc1nc(-c2ccc(F)c3c(C(=O)C(=O)N4CCN(C(=O)c5ccccc5)CC4)c[nH]c23)no1 | 0.0082 | 43000 | 17 | 6.9 | 
11 | COc1nc(-c2ccc(F)c3c(C(=O)C(=O)N4CCN(C(=O)c5ccccc5)CC4)c[nH]c23)no1 | 3.55 | 44000 |  |  | 
12 | Cc1noc(-c2ccc(F)c3c(C(=O)C(=O)N4CCN(C(=O)c5ccccc5)CC4)c[nH]c23)n1 | 0.094 | > 300000 |  |  | 
13 | Cc1nc(-c2ccc(F)c3c(C(=O)C(=O)N4CCN(C(=O)c5ccccc5)CC4)c[nH]c23)no1 | 0.06 | 226000 |  |  | 
14 | O=C(C(=O)N1CCN(C(=O)c2ccccc2)CC1)c1c[nH]c2c(-c3nc4ccccc4[nH]3)ccc(F)c12 | 0.53 | 11000 |  |  | 
15 | O=C(C(=O)N1CCN(C(=O)c2ccccc2)CC1)c1c[nH]c2c(-c3nc4ccccc4o3)ccc(F)c12 | 0.88 | 27000 |  |  | 
16 | O=C(C(=O)N1CCN(C(=O)c2ccccc2)CC1)c1c[nH]c2c(-c3nn[nH]n3)ccc(F)c12 | 0.08 | 245000 | > 200 | 1.7 | EC50 [1]: 6.38 nM; clearance [8]: 3.1 mL/min/kg; Cmax [9]: 95 ng/mL; EC50 [3]: 9.41 nM; half-life [10]: 67 min; EC50 [5]: 0.37 nM; bioavailability [11]: 2.3%
17 | O=C(C(=O)N1CCN(C(=O)c2ccccc2)CC1)c1c[nH]c2c(-c3nnc[nH]3)ccc(F)c12 | 0.03 | 199000 | 32 | 1.9 | clearance [8]: 3.7 mL/min/kg; Cmax [9]: 369 ng/mL; half-life [10]: 187 min; bioavailability [11]: 14%
18 | O=C(C(=O)N1CCN(C(=O)c2ccccc2)CC1)c1c[nH]c2c(-c3nnco3)ccc(F)c12 | 0.05 | > 300000 | 10 |  | 
19 | O=C(C(=O)N1CCN(C(=O)c2ccccc2)CC1)c1c[nH]c2c(-c3ncon3)ccc(F)c12 | 0.05 | 74000 | 17 | > 30 | EC50 [1]: 3.38 nM; clearance [8]: 3.9 mL/min/kg; Cmax [9]: 2610 ng/mL; EC50 [3]: 8.66 nM; selectivity ratio [12]: 1500; half-life [10]: 120 min; EC50 [5]: 7.61 nM; bioavailability [11]: 89%
20 | O=C(C(=O)N1CCN(C(=O)c2ccccc2)CC1)c1c[nH]c2c(-c3cnc[nH]3)ccc(F)c12 | 0.06 | > 300000 | 16 | 3.7 | 
21 | O=C(C(=O)N1CCN(C(=O)c2ccccc2)CC1)c1c[nH]c2c(-c3cnco3)ccc(F)c12 | 0.0054 | > 300000 | 2.9 | 12.2 | clearance [8]: 17 mL/min/kg; Cmax [9]: 444 ng/mL; half-life [10]: 65 min; bioavailability [11]: 47%
22 | O=C(C(=O)N1CCN(C(=O)c2ccccc2)CC1)c1c[nH]c2c(-c3ncco3)ccc(F)c12 | 0.05 | 192000 |  |  | 
23 | O=C(C(=O)N1CCN(C(=O)c2ccccc2)CC1)c1c[nH]c2c(-c3nccs3)ccc(F)c12 | 0.0067 | 23000 |  |  | 
24 | O=C(C(=O)N1CCN(C(=O)c2ccccc2)CC1)c1c[nH]c2c(-c3ccsc3)ccc(F)c12 | 0.01 | 27000 |  |  | 
25 | O=C(C(=O)N1CCN(C(=O)c2ccccc2)CC1)c1c[nH]c2c(-c3cccs3)ccc(F)c12 | 0.06 | 5300 |  |  | 
26 | O=C(C(=O)N1CCN(C(=O)c2ccccc2)CC1)c1c[nH]c2c(-c3cccnc3)ccc(F)c12 | 0.06 | 10000 |  |  | 
27 | O=C(C(=O)N1CCN(C(=O)c2ccccc2)CC1)c1c[nH]c2c(-c3ccccn3)ccc(F)c12 | 0.12 | 17000 |  |  | 
28 | COc1ccc(-c2ccc(F)c3c(C(=O)C(=O)N4CCN(C(=O)c5ccccc5)CC4)c[nH]c23)cc1 | 0.04 | 21000 |  |  | 
29 | O=C(C(=O)N1CCN(C(=O)c2ccccc2)CC1)c1c[nH]c2c(-c3ccccc3)ccc(F)c12 | 0.43 | 6800 |  |  | 
30 | O=C(C(=O)N1CCN(C(=O)c2ccccc2)CC1)c1c[nH]c2ccccc12 | 153 | 275000 |  |  | 
